Assay results published in patent US20240269139A1, “COMPOUNDS FOR TARGETED PROTEIN DEGRADATION OF KINASES” (DANA-FARBER CANCER INSTITUTE, INC., priority 2020, published 2024).
Several values for one entry are separate records, joined by “and”; a condition that tells them apart may be missing. Identical values can stand only once. Like-named read-outs stand apart in the source and are kept apart here.

Experiments:
Type in all cases: cell-based
[1] = target: protein kinases (human kinome) (Homo sapiens, UniProt O43683); details: for logFC: BUB1 (O43683), experiment wp076; for logFC BUB1 (O43683): Experiment wp076, direction down
Sequence of protein kinases (human kinome) (Homo sapiens, UniProt O43683) (O43683 whole entry): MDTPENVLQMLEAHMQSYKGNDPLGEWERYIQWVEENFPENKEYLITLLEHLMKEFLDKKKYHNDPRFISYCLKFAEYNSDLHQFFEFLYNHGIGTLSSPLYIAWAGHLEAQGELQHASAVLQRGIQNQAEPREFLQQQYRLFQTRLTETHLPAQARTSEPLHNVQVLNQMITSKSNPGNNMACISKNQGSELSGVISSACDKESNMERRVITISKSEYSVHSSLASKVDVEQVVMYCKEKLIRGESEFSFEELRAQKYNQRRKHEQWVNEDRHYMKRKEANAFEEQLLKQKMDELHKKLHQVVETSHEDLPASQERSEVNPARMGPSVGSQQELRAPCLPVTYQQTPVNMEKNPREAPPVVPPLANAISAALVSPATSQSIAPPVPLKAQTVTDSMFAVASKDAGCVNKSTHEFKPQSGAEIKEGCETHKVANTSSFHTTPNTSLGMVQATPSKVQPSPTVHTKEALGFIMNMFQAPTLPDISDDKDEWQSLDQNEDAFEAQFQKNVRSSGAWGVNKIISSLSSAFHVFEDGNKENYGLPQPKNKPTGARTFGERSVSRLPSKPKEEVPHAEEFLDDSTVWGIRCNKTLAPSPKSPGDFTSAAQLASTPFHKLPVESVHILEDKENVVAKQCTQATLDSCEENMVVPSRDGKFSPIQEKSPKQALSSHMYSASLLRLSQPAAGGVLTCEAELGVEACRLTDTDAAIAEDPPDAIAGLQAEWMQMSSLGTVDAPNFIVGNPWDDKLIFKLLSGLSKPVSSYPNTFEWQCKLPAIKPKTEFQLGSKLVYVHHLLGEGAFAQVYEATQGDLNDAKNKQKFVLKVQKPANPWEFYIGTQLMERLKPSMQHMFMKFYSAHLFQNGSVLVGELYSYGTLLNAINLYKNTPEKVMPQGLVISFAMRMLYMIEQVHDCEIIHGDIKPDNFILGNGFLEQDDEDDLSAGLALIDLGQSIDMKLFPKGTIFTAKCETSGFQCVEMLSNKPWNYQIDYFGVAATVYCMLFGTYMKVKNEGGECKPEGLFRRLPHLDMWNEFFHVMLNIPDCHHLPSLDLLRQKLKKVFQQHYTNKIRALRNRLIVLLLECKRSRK

[2] = target: T1, protein kinases (human kinome) (Homo sapiens, UniProt O94768); details: for logFC STK17B (O94768): direction down; for logFC: STK17B (O94768)
T1 sequence (O94768 1-372): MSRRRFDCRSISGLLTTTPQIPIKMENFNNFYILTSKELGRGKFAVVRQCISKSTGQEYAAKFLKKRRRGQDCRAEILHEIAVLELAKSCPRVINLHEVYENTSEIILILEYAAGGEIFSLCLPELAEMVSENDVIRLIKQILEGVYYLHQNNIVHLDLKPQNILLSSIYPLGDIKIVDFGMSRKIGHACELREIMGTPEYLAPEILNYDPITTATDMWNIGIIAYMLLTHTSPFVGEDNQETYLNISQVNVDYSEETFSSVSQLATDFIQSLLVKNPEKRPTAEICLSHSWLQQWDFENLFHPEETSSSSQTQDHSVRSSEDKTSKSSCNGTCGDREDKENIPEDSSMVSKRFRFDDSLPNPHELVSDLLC

[3] = target: protein kinases (human kinome) (Homo sapiens, UniProt Q00537); details: for logFC of CDK17: Accession Q00537; for logFC CDK17 (Q00537): direction of change down
Sequence of protein kinases (human kinome) (Homo sapiens, UniProt Q00537) (Q00537 whole entry): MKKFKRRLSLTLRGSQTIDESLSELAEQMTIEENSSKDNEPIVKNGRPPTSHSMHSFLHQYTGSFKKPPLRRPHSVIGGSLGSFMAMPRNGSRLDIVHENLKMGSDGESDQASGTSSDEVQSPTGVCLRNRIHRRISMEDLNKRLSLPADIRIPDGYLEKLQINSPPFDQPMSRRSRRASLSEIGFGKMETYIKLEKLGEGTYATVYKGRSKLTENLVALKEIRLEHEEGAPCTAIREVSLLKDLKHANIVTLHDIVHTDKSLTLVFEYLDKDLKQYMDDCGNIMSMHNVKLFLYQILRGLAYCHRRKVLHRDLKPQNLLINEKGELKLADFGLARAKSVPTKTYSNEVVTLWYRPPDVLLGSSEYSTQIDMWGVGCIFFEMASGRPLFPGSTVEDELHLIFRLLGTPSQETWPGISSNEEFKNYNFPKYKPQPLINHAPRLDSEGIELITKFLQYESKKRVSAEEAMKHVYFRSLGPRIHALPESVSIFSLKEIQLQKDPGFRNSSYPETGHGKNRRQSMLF

[4] = target: protein kinases (human kinome) (Homo sapiens, UniProt P53667); details: LIMK1 (P53667-1), experiment wp168
[5] = target: protein kinases (human kinome) (Homo sapiens, UniProt P42684); details: for logFC: ABL2 (P42684) protein abundance, degrader vs DMSO, down
Sequence of protein kinases (human kinome) (Homo sapiens, UniProt P42684) (P42684 whole entry): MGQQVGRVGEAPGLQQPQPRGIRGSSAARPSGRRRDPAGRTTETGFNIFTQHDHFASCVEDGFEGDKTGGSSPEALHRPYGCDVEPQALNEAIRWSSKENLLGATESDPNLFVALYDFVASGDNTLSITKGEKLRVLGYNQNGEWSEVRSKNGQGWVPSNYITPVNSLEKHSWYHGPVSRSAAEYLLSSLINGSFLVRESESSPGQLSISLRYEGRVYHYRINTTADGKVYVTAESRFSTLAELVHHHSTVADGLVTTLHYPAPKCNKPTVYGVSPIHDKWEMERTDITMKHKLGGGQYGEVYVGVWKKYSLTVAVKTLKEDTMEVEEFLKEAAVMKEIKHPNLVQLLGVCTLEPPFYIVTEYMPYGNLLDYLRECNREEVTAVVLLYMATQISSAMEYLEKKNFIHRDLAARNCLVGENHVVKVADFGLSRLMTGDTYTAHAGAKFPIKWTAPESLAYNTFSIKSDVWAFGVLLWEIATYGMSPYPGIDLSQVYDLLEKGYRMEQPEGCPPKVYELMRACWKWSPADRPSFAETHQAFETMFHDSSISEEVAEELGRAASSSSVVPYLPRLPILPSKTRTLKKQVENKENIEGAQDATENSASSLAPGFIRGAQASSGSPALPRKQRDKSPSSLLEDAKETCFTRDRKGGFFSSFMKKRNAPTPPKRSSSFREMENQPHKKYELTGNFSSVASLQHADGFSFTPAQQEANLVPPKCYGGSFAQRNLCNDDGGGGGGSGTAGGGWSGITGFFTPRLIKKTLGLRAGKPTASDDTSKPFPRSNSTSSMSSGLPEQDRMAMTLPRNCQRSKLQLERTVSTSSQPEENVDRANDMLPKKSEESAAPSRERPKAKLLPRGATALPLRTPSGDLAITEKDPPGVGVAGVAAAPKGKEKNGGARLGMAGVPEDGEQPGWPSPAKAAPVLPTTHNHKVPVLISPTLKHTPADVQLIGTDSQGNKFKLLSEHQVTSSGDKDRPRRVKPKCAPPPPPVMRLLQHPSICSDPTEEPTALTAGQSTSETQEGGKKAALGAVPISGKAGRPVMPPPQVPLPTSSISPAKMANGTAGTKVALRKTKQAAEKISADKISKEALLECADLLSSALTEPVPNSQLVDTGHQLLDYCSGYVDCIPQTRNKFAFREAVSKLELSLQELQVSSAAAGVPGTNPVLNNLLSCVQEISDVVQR

[6] = target: protein kinases (human kinome) (Homo sapiens, UniProt P51812); details: RPS6KA3 (P51812)
Sequence of protein kinases (human kinome) (Homo sapiens, UniProt P51812) (P51812 whole entry): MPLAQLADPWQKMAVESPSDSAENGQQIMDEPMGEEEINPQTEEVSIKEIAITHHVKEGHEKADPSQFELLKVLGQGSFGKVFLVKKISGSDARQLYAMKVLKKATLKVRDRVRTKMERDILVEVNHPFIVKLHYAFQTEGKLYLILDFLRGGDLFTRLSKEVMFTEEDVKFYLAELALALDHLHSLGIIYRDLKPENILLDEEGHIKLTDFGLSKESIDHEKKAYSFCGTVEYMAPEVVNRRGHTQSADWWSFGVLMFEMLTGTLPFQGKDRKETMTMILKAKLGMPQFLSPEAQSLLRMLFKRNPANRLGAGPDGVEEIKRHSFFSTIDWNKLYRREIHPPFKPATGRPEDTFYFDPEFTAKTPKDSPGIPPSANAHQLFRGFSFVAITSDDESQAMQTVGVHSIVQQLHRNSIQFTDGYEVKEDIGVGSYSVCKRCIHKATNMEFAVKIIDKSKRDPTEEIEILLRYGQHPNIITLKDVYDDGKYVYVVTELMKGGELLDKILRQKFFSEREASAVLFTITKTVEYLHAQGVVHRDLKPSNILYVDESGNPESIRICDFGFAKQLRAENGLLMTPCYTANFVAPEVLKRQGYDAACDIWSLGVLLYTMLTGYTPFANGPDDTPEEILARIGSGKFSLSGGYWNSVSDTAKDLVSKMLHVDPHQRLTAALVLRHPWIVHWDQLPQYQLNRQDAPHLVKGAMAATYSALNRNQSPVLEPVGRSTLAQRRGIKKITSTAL

[7] = target: protein kinases (human kinome) (Homo sapiens, UniProt Q16539); details: for logFC MAPK14: MAPK14, accession Q16539, direction of change down
Sequence of protein kinases (human kinome) (Homo sapiens, UniProt Q16539) (Q16539 whole entry): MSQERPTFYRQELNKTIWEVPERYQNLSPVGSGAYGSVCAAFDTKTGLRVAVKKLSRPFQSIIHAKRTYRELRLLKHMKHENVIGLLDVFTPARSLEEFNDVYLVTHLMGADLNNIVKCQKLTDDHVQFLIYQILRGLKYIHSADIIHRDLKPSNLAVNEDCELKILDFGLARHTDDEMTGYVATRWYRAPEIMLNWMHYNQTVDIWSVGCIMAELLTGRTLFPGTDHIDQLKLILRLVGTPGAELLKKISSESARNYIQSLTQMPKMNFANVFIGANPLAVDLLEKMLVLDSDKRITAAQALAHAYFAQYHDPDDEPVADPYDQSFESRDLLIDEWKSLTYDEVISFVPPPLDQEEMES

[8] = target: protein kinases (human kinome) (Homo sapiens, UniProt P50613); details: for logFC: CDK7 (P50613) protein abundance, degrader vs DMSO, down; for logFC CDK7: CDK7 P50613
Sequence of protein kinases (human kinome) (Homo sapiens, UniProt P50613) (P50613 whole entry): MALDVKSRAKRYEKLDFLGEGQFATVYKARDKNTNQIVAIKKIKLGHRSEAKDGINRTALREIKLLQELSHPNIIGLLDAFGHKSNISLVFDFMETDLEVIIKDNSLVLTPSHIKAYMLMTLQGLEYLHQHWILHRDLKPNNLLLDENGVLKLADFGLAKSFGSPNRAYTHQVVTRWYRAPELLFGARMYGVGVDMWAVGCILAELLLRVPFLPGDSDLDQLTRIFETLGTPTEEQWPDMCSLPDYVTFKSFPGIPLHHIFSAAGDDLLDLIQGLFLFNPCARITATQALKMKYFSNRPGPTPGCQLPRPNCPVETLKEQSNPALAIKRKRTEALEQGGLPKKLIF

[9] = target: T2, protein kinases (human kinome) (Homo sapiens, UniProt Q96L34); details: for logFC MARK4: Accession Q96L34-1
T2 sequence (Q96L34 1-752): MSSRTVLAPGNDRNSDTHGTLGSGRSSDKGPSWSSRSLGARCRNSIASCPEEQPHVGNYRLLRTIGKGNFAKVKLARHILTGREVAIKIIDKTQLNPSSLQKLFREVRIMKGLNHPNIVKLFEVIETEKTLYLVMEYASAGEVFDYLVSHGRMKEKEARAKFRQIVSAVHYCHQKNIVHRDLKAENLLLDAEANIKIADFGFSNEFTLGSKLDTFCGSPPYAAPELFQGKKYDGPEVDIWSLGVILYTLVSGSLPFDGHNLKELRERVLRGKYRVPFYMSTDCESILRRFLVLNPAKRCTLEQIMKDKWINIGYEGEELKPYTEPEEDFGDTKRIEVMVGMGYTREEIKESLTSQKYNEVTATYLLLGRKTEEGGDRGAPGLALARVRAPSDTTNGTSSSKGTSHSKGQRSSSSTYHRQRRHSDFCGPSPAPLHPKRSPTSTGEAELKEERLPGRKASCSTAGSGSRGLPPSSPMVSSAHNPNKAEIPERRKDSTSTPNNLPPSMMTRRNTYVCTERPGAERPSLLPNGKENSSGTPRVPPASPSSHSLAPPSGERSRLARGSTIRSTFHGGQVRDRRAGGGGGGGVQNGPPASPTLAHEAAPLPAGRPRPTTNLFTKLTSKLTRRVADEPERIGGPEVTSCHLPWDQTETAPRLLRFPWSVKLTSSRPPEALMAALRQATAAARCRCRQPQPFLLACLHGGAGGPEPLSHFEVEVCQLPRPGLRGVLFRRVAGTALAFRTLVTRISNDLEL

[10] = target: protein kinases (human kinome) (Homo sapiens, UniProt P07947); details: YES1 (P07947), experiment wp131
Sequence of protein kinases (human kinome) (Homo sapiens, UniProt P07947) (P07947 whole entry): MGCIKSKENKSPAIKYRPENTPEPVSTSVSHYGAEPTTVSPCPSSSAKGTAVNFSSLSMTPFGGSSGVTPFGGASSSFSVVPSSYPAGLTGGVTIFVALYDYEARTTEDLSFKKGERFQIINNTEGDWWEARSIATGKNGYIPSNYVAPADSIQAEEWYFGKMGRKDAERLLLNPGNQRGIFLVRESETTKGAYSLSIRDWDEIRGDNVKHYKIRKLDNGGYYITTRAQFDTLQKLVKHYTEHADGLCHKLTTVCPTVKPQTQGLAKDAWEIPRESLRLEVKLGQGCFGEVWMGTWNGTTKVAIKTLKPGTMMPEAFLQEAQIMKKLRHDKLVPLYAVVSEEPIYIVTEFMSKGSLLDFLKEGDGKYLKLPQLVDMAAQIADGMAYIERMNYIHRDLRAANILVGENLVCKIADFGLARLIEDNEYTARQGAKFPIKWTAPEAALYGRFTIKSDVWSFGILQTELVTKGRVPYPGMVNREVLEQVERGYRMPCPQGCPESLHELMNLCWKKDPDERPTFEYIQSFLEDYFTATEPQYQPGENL

[11] = experiment wp146, direction down

Q: What does the source list for `O=C1CCC(N2C(=O)c3cccc(NCCCCCCCCN4CCC(NC(=O)c5[nH]ncc5NC(=O)c5c(Cl)cccc5Cl)CC4)c3C2=O)C(=O)N1` (stereo not shown) [MFH.5.126.1]?
A: logFC [1]: −0.9248; logFC BUB1 (O43683) [1]: −0.9248; logFC STK17B (O94768) ([2]; Experiment wp076): −0.5821; logFC ([2]; experiment wp076): −0.5821; logFC of CDK17 ([3]; experiment wp076): −0.5894; logFC CDK17 (Q00537) ([3]; Experiment wp076): −0.5894

Q: How did the BUB1 degradation ([1]; MOLT-4 and MM.1S cell lines) turn out when `CC(C)S(=O)(=O)c1ccccc1Nc1nc(Nc2ccc(N3CCN(CCOCCNC(=O)CNc4cccc5c4C(=O)N(C4CCC(=O)NC4=O)C5=O)CC3)cc2)ncc1Cl` (stereo not shown) [SK-3-91] was run?
A: degraded

Q: Which “logFC LIMK1” value ([4]; direction down) does the source give for `Cc1ccc(NC(=O)c2cccc(C(F)(F)F)c2)cc1N1Cc2cnc(Nc3ccc(N4CCN(CCCCC(=O)N[C@H](C(=O)N5C[C@H](O)C[C@H]5C(=O)N[C@@H](C)c5ccc(-c6scnc6C)cc5)C(C)(C)C)CC4)nc3)nc2N(C)C1=O` [DB1113] here?
A: −1.144

Q: And the “logFC LIMK1” value ([4]; down)?
A: −1.144

Q: And the logFC [5]?
A: −1.723

Q: What about the “logFC ABL2 (P42684)” value ([5]; Experiment wp168) of the same compound?
A: −1.723

Q: And the logFC ([6]; experiment wp168)?
A: −0.5079

Q: What about the logFC ([6]; experiment wp168, direction down) of the same compound?
A: −0.5079

Q: What about the “logFC of MAPK14” value ([7]; Accession Q16539, experiment wp168) of the same compound?
A: −1.73

Q: What about the logFC ([7]; MAPK14 (Q16539), experiment wp168) of the same compound?
A: −1.73

Q: Which logFC [8] does the source give for `Cc1cc(Nc2ncc(Br)c(Nc3cccc(F)c3C(N)=O)n2)ccc1S(=O)(=O)NCCOCCOCCOCCOCCNc1cccc2c1C(=O)N(C1CCC(=O)NC1=O)C2=O` (stereo not shown) [TMX.02.174] here?
A: −0.584

Q: And the “logFC CDK7” value ([8]; experiment wp146)?
A: −0.584

Q: What about the “logFC of CDK17” value ([3]; experiment wp146) of the same compound?
A: −1.42

Q: What about the “logFC CDK17 (Q00537)” value ([3]; experiment wp146) of the same compound?
A: −1.42

Q: What about the logFC ([6]; experiment wp146) of the same compound?
A: −0.4312

Q: What about the logFC [6, 11] of the same compound?
A: −0.4312

Q: With `CCc1cnn2c(N(Cc3ccc(N)nc3)C(=O)CCOCCOCCOCCNC(=O)CNc3cccc4c3C(=O)N(C3CCC(=O)NC3=O)C4=O)cc(N3CCCC[C@H]3CCO)nc12` (stereo partly shown) [MFH.5.115.2] as the compound, how does the logFC [1] read?
A: −0.5159

Q: And the “logFC BUB1 (O43683)” value [1]?
A: −0.5159

Q: With `Cc1cnc(Nc2ccc(N3CCN(CCCCCCC(=O)N[C@H](C(=O)N4C[C@H](O)C[C@H]4C(=O)N[C@@H](C)c4ccc(-c5scnc5C)cc4)C(C)(C)C)CC3)cc2)nc1Nc1cccc(S(=O)(=O)NC(C)(C)C)c1` [JWG.123] as the compound, how does the “logFC STK17B (O94768)” value ([2]; Experiment wp195) read?
A: −1.872

Q: What about the logFC ([2]; experiment wp195) of the same compound?
A: −1.872

Q: And the “logFC MARK4” value ([9]; experiment wp195)?
A: −1.532

Q: And the “logFC MARK4 (Q96L34-1)” value ([9]; Experiment wp195)?
A: −1.532

Q: Which logFC [8] does the source give for `NC(=O)c1c(F)cccc1Nc1nc(Nc2ccc(S(=O)(=O)NCCOCCOCCOCCOCCNc3cccc4c3C(=O)N(C3CCC(=O)NC3=O)C4=O)cc2)ncc1Br` (stereo not shown) [TMX.02.138] here?
A: −0.5239

Q: What about the “logFC CDK7” value ([8]; experiment wp146) of the same compound?
A: −0.5239

Q: And the “logFC of CDK17” value ([3]; experiment wp146)?
A: −1.361

Q: What about the “logFC CDK17 (Q00537)” value ([3]; experiment wp146) of the same compound?
A: −1.361

Q: What about the logFC ([6]; experiment wp146) of the same compound?
A: −0.4023

Q: What about the logFC [6, 11] of the same compound?
A: −0.4023

Q: `Cc1ncsc1-c1ccc([C@H](C)NC(=O)[C@@H]2C[C@@H](O)CN2C(=O)[C@@H](NC(=O)CCCCCN2CCc3cc(Nc4ncc(C5CC5)c(NCCCNC(=O)C5CCC5)n4)ccc3C2)C(C)(C)C)cc1` [BSJ.05.026] was tested. Which “logFC STK17B (O94768)” value ([2]; Experiment wp195) did it give?
A: −0.9299

Q: What about the logFC ([2]; experiment wp195) of the same compound?
A: −0.9299

Q: What about the “logFC MARK4” value ([9]; experiment wp195) of the same compound?
A: −1.571

Q: What about the “logFC MARK4 (Q96L34-1)” value ([9]; Experiment wp195) of the same compound?
A: −1.571

Q: How did the “logFC STK17B (O94768)” value ([2]; Experiment wp134) turn out when `O=C(COc1cccc2c1C(=O)N(C1CCC(=O)NC1=O)C2=O)NCCCCCCCN1CCc2cc(Nc3ncc(C4CC4)c(NCCCNC(=O)C4CCC4)n3)ccc2C1` (stereo not shown) [BSJ.04.178] was run?
A: −1.604

Q: What about the logFC ([2]; experiment wp134) of the same compound?
A: −1.604

Q: And the “logFC MARK4” value ([9]; experiment wp134)?
A: −0.993

Q: And the “logFC MARK4 (Q96L34-1)” value ([9]; experiment wp134)?
A: −0.993

Q: Which logFC [8] does the source give for `CNC(=O)c1ccccc1Nc1cc(Nc2ccc(N3CCN(CCOCCOCCNC(=O)CNc4cccc5c4C(=O)N(C4CCC(=O)NC4=O)C5=O)CC3)cc2OC)ncc1C(F)(F)F` (stereo not shown) [MFH.5.103.1] here?
A: −0.5098

Q: And the “logFC CDK7” value ([8]; experiment wp076)?
A: −0.5098

Q: What about the logFC ([6]; experiment wp076) of the same compound?
A: −1.165

Q: What about the logFC ([6]; experiment wp076, direction down) of the same compound?
A: −1.165

Q: `Cc1ncsc1-c1ccc([C@H](C)NC(=O)[C@@H]2C[C@@H](O)CN2C(=O)[C@@H](NC(=O)CCCCCN2CCN(c3ccc(Nc4ncc5scc(-c6cccc(NS(C)(=O)=O)c6)c5n4)cc3)CC2)C(C)(C)C)cc1` [RSS0680, (2S,4R)-1-((S)-3,3-Dimethyl-2-(6-(4-(4-((7-(3-(methylsulfonamido)phenyl)thieno[3,2-d]pyrimidin-2-yl)amino)phenyl)piperazin-1-yl)hexanamido)butanoyl)-4-hydroxy-N—((S)-1-(4-(4-methylthiazol-5yl)phenyl)ethyl)pyrrolidine-2-carboxamide] was tested. Which “logFC STK17B (O94768)” value ([2]; Experiment wp080) did it give?
A: −1.375

Q: And the “logFC STK17B (O94768)” value ([2]; Experiment wp117)?
A: −1.373

Q: And the logFC ([2]; experiment wp080)?
A: −1.375

Q: What about the logFC ([2]; experiment wp117) of the same compound?
A: −1.373

Q: And the logFC [8]?
A: −1.017 and −1.219

Q: And the “logFC CDK7” value ([8]; experiment wp080)?
A: −1.017

Q: And the “logFC CDK7” value ([8]; experiment wp117)?
A: −1.219

Q: What about the “logFC of CDK17” value ([3]; experiment wp080) of the same compound?
A: −0.7875

Q: And the “logFC of CDK17” value ([3]; experiment wp117)?
A: −0.7193

Q: What about the “logFC CDK17 (Q00537)” value ([3]; experiment wp080) of the same compound?
A: −0.7875

Q: And the “logFC CDK17 (Q00537)” value ([3]; experiment wp117)?
A: −0.7193

Q: What about the “logFC MARK4” value ([9]; experiment wp080) of the same compound?
A: −0.4537

Q: What about the “logFC MARK4 (Q96L34-1)” value ([9]; experiment wp080) of the same compound?
A: −0.4537

Q: For `Cn1c(=O)c(-c2c(Cl)cccc2Cl)cc2cnc(Nc3ccc(OCCNC(=O)CCCCCCNC(=O)COc4cccc5c4C(=O)N(C4CCC(=O)NC4=O)C5=O)cc3)nc21` (stereo not shown) [SB1.G.192.1], which logFC [5] is on record?
A: −2.44

Q: And the “logFC ABL2 (P42684)” value ([5]; experiment wp071)?
A: −2.44

Q: And the logFC ([7]; MAPK14 (Q16539) protein abundance, degrader vs DMSO, down)?
A: −0.8915 and −0.7293

Q: What about the logFC ([7]; MAPK14 (Q16539), experiment wp131) of the same compound?
A: −0.7463

Q: What about the “logFC MAPK14” value ([7]; experiment wp071) of the same compound?
A: −0.8915

Q: What about the “logFC MAPK14” value ([7]; experiment wp081) of the same compound?
A: −0.7293

Q: What about the “logFC MAPK14” value ([7]; experiment wp131) of the same compound?
A: −0.7463

Q: What about the logFC [10] of the same compound?
A: −1.244

Q: What about the logFC ([10]; direction down) of the same compound?
A: −1.244
